Read-outs that look alike come from different tables or passages of the source.
What was measured:
Assay type in all cases: cell-based
[1] = target: protein kinases (human kinome) (Homo sapiens, UniProt P30291); settings: for logFC of WEE1: WEE1 P30291-1
[2] = target: protein kinases (human kinome) (Homo sapiens, UniProt P16591); settings: for logFC of FER (P16591-1): down; for logFC of FER: FER P16591-1
[3] = target: T1, protein kinases (human kinome) (Homo sapiens, UniProt O14965)
T1 sequence (O14965 1-403): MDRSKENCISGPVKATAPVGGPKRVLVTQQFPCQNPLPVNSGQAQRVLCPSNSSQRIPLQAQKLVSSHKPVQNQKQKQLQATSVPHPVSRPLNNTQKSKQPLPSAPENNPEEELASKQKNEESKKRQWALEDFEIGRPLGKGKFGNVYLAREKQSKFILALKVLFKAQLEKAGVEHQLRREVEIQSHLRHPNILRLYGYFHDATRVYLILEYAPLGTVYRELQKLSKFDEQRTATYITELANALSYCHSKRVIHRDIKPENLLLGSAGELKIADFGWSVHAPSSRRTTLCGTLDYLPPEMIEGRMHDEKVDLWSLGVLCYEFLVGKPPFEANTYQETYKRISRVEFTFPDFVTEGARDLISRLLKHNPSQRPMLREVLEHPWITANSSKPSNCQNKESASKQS

[4] = target: protein kinases (human kinome) (Homo sapiens, UniProt Q2M2I8)
Chain of protein kinases (human kinome) (Homo sapiens, UniProt Q2M2I8) (Q2M2I8 whole entry): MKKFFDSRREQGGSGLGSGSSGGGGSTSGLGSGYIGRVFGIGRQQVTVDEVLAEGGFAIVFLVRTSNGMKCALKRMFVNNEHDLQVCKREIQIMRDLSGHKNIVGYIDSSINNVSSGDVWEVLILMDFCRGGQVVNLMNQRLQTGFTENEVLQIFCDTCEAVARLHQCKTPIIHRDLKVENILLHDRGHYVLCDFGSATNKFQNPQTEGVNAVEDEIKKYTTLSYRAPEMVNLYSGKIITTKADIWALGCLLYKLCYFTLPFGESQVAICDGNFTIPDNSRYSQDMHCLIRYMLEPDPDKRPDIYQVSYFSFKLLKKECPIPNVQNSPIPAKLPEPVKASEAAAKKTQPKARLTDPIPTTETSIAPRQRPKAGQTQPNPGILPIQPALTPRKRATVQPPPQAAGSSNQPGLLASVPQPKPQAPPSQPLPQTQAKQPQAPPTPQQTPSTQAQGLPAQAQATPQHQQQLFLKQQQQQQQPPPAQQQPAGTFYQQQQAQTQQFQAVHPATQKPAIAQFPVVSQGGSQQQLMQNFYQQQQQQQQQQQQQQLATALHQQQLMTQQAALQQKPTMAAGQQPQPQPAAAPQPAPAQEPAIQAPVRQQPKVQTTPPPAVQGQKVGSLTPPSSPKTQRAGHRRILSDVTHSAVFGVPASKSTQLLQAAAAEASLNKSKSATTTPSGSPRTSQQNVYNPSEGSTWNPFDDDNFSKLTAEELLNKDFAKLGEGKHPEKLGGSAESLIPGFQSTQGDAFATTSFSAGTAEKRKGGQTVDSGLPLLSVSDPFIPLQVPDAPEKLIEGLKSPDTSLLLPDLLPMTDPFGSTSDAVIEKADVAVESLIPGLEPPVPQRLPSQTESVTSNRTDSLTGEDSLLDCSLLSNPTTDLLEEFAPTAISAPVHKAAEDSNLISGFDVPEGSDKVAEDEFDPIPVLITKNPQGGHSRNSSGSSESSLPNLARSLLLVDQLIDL

[5] = test system: protein kinases (human kinome); settings: for logFC ABL1: ABL1 (P00519-2); for logFC / logFC AURKB: AURKB Q96GD4-5; for logFC of SRC: Accession P12931-2; for logFC CSNK1D: Accession P48730-2; for logFC CDK12: Accession Q9NYV4-2

Chain of protein kinases (human kinome) (Homo sapiens, UniProt P16591) (P16591 whole entry): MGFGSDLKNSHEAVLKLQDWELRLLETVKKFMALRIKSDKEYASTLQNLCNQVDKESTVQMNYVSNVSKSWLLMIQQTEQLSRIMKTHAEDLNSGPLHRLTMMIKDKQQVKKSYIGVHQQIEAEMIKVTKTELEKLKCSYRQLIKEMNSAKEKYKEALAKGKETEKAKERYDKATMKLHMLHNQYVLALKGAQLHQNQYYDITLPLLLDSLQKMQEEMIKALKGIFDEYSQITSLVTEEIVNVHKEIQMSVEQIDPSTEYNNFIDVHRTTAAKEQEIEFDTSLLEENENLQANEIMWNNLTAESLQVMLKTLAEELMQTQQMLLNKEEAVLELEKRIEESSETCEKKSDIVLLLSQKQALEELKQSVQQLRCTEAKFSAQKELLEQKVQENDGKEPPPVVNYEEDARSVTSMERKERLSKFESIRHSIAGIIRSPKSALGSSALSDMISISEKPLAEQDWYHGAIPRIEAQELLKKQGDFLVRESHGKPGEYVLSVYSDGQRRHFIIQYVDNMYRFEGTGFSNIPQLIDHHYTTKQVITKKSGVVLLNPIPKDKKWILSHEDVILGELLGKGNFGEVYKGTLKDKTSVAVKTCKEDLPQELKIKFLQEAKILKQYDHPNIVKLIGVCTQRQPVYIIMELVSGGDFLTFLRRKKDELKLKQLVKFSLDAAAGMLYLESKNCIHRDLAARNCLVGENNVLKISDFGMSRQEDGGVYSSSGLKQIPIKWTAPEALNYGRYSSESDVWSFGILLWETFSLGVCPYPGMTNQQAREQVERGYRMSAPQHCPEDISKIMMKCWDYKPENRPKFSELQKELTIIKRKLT
Chain of protein kinases (human kinome) (Homo sapiens, UniProt P30291) (P30291 whole entry): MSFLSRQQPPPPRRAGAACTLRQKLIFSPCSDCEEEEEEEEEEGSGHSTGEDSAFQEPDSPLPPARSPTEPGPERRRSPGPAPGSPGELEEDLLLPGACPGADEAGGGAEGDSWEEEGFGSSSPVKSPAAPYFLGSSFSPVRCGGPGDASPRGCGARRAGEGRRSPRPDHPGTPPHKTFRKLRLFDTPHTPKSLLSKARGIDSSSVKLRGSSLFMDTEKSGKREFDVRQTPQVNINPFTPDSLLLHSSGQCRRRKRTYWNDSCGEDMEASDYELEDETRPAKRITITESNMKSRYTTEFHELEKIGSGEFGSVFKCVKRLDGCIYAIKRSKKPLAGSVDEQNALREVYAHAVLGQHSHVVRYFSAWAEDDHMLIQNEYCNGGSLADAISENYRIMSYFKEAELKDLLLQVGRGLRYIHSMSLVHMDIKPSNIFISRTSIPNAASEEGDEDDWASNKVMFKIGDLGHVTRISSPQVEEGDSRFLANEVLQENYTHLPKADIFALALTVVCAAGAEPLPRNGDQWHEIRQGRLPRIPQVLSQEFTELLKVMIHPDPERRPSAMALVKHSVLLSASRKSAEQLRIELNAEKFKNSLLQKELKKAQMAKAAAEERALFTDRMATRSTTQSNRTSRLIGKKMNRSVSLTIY

Compound: CC(C)S(=O)(=O)c1ccccc1Nc1nc(Nc2ccc(N3CCN(CCOCCNC(=O)CNc4cccc5c4C(=O)N(C4CCC(=O)NC4=O)C5=O)CC3)cc2)ncc1Cl (stereo not drawn) [SK.3.91]
- logFC WEE1 (P30291-1) ([1]; Experiment wp160, 2 hr): −1.201
- logFC WEE1 (P30291-1) ([1]; Experiment wp172): −0.6853
- logFC of WEE1 ([1]; experiment wp103): −1.371
- logFC of WEE1 ([1]; experiment wp105): −1.229
- logFC of WEE1 ([1]; experiment wp107): −2.329
- logFC of WEE1 ([1]; experiment wp133, 1 hr): −0.4866
- logFC of WEE1 ([1]; experiment wp133, 2 hr): −1.21
- logFC of WEE1 ([1]; experiment wp133, 4 hr): −2.314
- logFC of WEE1 ([1]; experiment wp160, 1 hr): −0.5503
- logFC of WEE1 ([1]; experiment wp160, 2 hr): −1.201
- logFC of WEE1 ([1]; experiment wp160, 4 hr): −1.994
- logFC of WEE1 ([1]; experiment wp172): −0.6853
- logFC WEE1 (P30291-1) ([1]; experiment wp016): −1.278
- logFC WEE1 (P30291-1) ([1]; experiment wp016, 1 uM): −2.684
- logFC WEE1 (P30291-1) ([1]; experiment wp103): −1.371
- logFC WEE1 (P30291-1) ([1]; experiment wp105): −1.229
- logFC WEE1 (P30291-1) ([1]; experiment wp107): −2.329
- logFC WEE1 (P30291-1) ([1]; experiment wp133, 1 hr): −0.4866
- logFC WEE1 (P30291-1) ([1]; experiment wp133, 2 hr): −1.21
- logFC WEE1 (P30291-1) ([1]; experiment wp133, 4 hr): −2.314
- logFC WEE1 (P30291-1) ([1]; experiment wp160, 1 hr): −0.5503
- logFC WEE1 (P30291-1) ([1]; experiment wp160, 4 hr): −1.994
- logFC of FER (P16591-1) ([2]; Experiment wp016, 1 uM): −3.321
- logFC of FER (P16591-1) ([2]; Experiment wp016): −2.645
- logFC of FER (P16591-1) ([2]; Experiment wp103): −2.81
- logFC of FER (P16591-1) ([2]; Experiment wp105): −2.857
- logFC of FER (P16591-1) ([2]; Experiment wp107): −2.657
- logFC of FER (P16591-1) ([2]; Experiment wp133, 1 hr): −1.132
- logFC of FER (P16591-1) ([2]; Experiment wp133, 2 hr): −2.153
- logFC of FER (P16591-1) ([2]; Experiment wp133, 4 hr): −2.426
- logFC of FER (P16591-1) ([2]; Experiment wp160, 1 hr): −0.8534
- logFC of FER (P16591-1) ([2]; Experiment wp160, 2 hr): −1.88
- logFC of FER (P16591-1) ([2]; Experiment wp160, 4 hr): −1.987
- logFC of FER ([2]; experiment wp016): −2.646
- logFC of FER ([2]; experiment wp016, 1 uM): −3.321
- logFC of FER ([2]; experiment wp103): −2.81
- logFC of FER ([2]; experiment wp105): −2.857
- logFC of FER ([2]; experiment wp107): −2.657
- logFC of FER ([2]; experiment wp133, 1 hr): −1.132
- logFC of FER ([2]; experiment wp133, 2 hr): −2.153
- logFC of FER ([2]; experiment wp133, 4 hr): −2.426
- logFC of FER ([2]; experiment wp160, 1 hr): −0.8534
- logFC of FER ([2]; experiment wp160, 2 hr): −1.88
- logFC of FER ([2]; experiment wp160, 4 hr): −1.987
- logFC AURKA (O14965) ([3]; Experiment wp160, 2 hr): −0.8456
- logFC AURKA (O14965) ([3]; Experiment wp172): −2.048
- logFC AURKA (O14965) ([3]; experiment wp016): −1.908
- logFC AURKA (O14965) ([3]; experiment wp016, 1 uM): −3.024
- logFC AURKA (O14965) ([3]; experiment wp103): −1.587
- logFC AURKA (O14965) ([3]; experiment wp105): −1.837
- logFC AURKA (O14965) ([3]; experiment wp107): −3.069
- logFC AURKA (O14965) ([3]; experiment wp114): −1.228
- logFC AURKA (O14965) ([3]; experiment wp133, 1 hr): −1.329
- logFC AURKA (O14965) ([3]; experiment wp133, 2 hr): −2.092
- logFC AURKA (O14965) ([3]; experiment wp133, 4 hr): −3.745
- logFC AURKA (O14965) ([3]; experiment wp160, 1 hr): −0.547
- logFC AURKA (O14965) ([3]; experiment wp160, 4 hr): −1.391
- logFC AAK1 ([4]; AAK1 (Q2M218-1), experiment wp016, 1 uM, down): −1.114
- logFC AAK1 ([4]; AAK1 (Q2M218-1), experiment wp016, down): −1.364
- logFC AAK1 ([4]; AAK1 (Q2M218-1), experiment wp103, down): −0.7763
- logFC AAK1 ([4]; AAK1 (Q2M218-1), experiment wp105, down): −1.575
- logFC AAK1 ([4]; AAK1 (Q2M218-1), experiment wp107, down): −1.059
- logFC AAK1 ([4]; AAK1 (Q2M218-1), experiment wp114, down): −0.8221
- logFC AAK1 ([4]; AAK1 (Q2M218-1), experiment wp133, 2 hr, down): −0.5506
- logFC AAK1 ([4]; AAK1 (Q2M218-1), experiment wp133, 4 hr, down): −1.105
- logFC AAK1 ([4]; AAK1 (Q2M218-1), experiment wp160, 2 hr, down): −0.5153
- logFC AAK1 ([4]; AAK1 (Q2M218-1), experiment wp160, 4 hr, down): −1.008
- logFC AAK1 ([4]; AAK1 (Q2M218-1), experiment wp172, down): −0.9755
- logFC AAK1 ([4]; AAK1, accession Q2M218-1, experiment wp016, 1 uM, direction of change down): −1.114
- logFC AAK1 ([4]; AAK1, accession Q2M218-1, experiment wp016, direction of change down): −1.364
- logFC AAK1 ([4]; AAK1, accession Q2M218-1, experiment wp103, direction of change down): −0.7763
- logFC AAK1 ([4]; AAK1, accession Q2M218-1, experiment wp105, direction of change down): −1.575
- logFC AAK1 ([4]; AAK1, accession Q2M218-1, experiment wp107, direction of change down): −1.059
- logFC AAK1 ([4]; AAK1, accession Q2M218-1, experiment wp114, direction of change down): −0.8221
- logFC AAK1 ([4]; AAK1, accession Q2M218-1, experiment wp133, 2 hr, direction of change down): −0.5506
- logFC AAK1 ([4]; AAK1, accession Q2M218-1, experiment wp133, 4 hr, direction of change down): −1.105
- logFC AAK1 ([4]; AAK1, accession Q2M218-1, experiment wp160, 2 hr, direction of change down): −0.5153
- logFC AAK1 ([4]; AAK1, accession Q2M218-1, experiment wp160, 4 hr, direction of change down): −1.008
- logFC AAK1 ([4]; AAK1, accession Q2M218-1, experiment wp172, direction of change down): −0.9755
- logFC ABL1 ([5]; experiment wp016, 1 uM): −0.3875
- logFC ABL1 ([5]; experiment wp105): −0.333
- logFC ABL1 ([5]; experiment wp107): −0.4711
- logFC ABL1 ([5]; experiment wp133, 4 hr): −0.3801
- logFC ([5]; experiment wp103): −0.3966
- logFC AURKB ([5]; experiment wp103): −0.3966
- logFC ([5]; experiment wp105): −0.7004
- logFC AURKB ([5]; experiment wp105): −0.7004
- logFC ([5]; experiment wp107): −0.443
- logFC AURKB ([5]; experiment wp107): −0.443
- logFC ([5]; experiment wp133, 1 hr): −0.4923
- logFC AURKB ([5]; experiment wp133, 1 hr): −0.4923
- logFC ([5]; experiment wp133, 2 hr): −0.5333
- logFC AURKB ([5]; experiment wp133, 2 hr): −0.5333
- logFC ([5]; experiment wp133, 4 hr): −0.8007
- logFC AURKB ([5]; experiment wp133, 4 hr): −0.8007
- logFC BUB1B ([5]; Accession O60566-3, experiment wp016, 1 uM, direction down): −0.4685
- logFC BUB1B ([5]; Accession O60566-3, experiment wp103, direction down): −0.3983
- logFC BUB1B ([5]; Accession O60566-3, experiment wp107, direction down): −0.5037
- logFC BUB1B ([5]; Accession O60566-3, experiment wp133, 1 hr, direction down): −0.4083
- logFC BUB1B ([5]; Accession O60566-3, experiment wp133, 2 hr, direction down): −0.4195
- logFC BUB1B ([5]; Accession O60566-3, experiment wp133, 4 hr, direction down): −0.5871
- logFC of SRC ([5]; experiment wp016): −0.3847
- logFC of SRC ([5]; experiment wp016, 1 uM): −0.8428
- logFC of SRC ([5]; experiment wp103): −0.5004
- logFC of SRC ([5]; experiment wp105): −0.3464
- logFC of SRC ([5]; experiment wp107): −0.7782
- logFC of SRC ([5]; experiment wp133, 4 hr): −0.6408
- logFC CSNK1D ([5]; experiment wp114, direction down): −0.3991
- logFC CSNK1D ([5]; experiment wp160, 4 hr, direction down): −0.3373
- logFC CDK12 ([5]; experiment wp107): −1.042
- logFC CDK12 ([5]; experiment wp160, 2 hr): −0.4558
- logFC CDK12 ([5]; experiment wp160, 4 hr): −0.8448
- logFC BUB1B ([5]; BUB1B (O60566-3), experiment wp016, 1 uM): −0.4685
- logFC BUB1B ([5]; BUB1B (O60566-3), experiment wp103): −0.3983

Reference: patent US20240269139A1, “COMPOUNDS FOR TARGETED PROTEIN DEGRADATION OF KINASES” (DANA-FARBER CANCER INSTITUTE, INC., priority 2020, published 2024)
